Like-named read-outs stand apart in the source and are kept apart here.
Assays:
[1] = test system: acute renal failure induced by renal ischemia followed by reperfusion in rats; assay: Effect on acute renal failure induced by renal ischemia-reperfusion; format: in vivo, rat (Sprague-Dawley); conditions: 50 mg/kg, orally, 20 hours of reperfusion
Method: Effect On Acute Renal Failure Induced By Renal Ischemia-Reperfusion Male Sprague-Dawley rats (6 to 7 weeks old) were anesthetized using pentobarbital sodium (50 mg/kg, i.p.) and bilateral renal arteries were completely occluded for 45 minutes followed by reperfusion. After 20 hours of the reperfusion, the blood was collected from the abdominal aorta under anesthesia and the blood urea nitrogen (BUN) was determined.

[2] = test system: Mouse phenylquinone writhing; assay: Mouse phenylquinone writhing inhibitory activity; format: in vivo, mouse (Slc: ICR); conditions: Mus musculus, po, 20 min, 50 mg/kg, orally; read-out: Inhibitory percentage (phenylquinone writhing)
Procedure, shortened: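 Male ICR mice (4 weeks, 17–24 g) dosed orally with compound suspended in 5% gum arabic. After 30 min, 0.02% phenylquinone (0.1 ml/10 g) given i.p.; writhing and stretching responses counted over 20 min.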

Rat adjuvant arthritis = assay: Activity to rat adjuvant arthritis; format: in vivo, rat (SD or Lewis); conditions: 50 mg/kg, day 0 to day 13
cyclooxygenase = target: T1, cyclooxygenase (Rattus norvegicus, UniProt Q63921); assay: Cyclooxygenase inhibitory activity (HHT formation from arachidonic acid in rat platelet-rich plasma); format: cell-based, rat (Jcl:wistar)
T1 construct: from tissue; host or cells: platelets in platelet-rich plasma from rat abdominal aorta blood (Jcl:wistar, male)
T1 sequence (Q63921 27-602): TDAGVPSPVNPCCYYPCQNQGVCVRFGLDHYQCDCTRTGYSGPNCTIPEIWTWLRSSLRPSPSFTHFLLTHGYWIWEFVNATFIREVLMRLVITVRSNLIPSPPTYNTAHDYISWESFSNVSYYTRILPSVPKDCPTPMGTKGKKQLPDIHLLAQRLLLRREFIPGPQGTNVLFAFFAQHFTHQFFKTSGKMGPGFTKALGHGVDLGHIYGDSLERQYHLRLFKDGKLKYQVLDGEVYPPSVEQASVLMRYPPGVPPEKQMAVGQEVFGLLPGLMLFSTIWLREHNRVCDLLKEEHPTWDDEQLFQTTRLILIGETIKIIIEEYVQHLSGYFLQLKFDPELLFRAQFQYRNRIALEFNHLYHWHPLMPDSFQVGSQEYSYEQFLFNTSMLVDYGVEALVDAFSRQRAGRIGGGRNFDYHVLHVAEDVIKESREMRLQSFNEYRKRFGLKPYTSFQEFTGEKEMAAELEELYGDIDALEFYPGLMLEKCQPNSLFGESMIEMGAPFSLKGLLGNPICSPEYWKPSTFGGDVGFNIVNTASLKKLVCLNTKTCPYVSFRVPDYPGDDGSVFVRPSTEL

[3] = test system: brewer's yeast induced pyrexia; assay: Antipyretic activity (brewer's yeast induced pyrexia); format: in vivo, rat (DS line); conditions: 50 mg/kg, orally
Procedure, shortened: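 Male DS rats (7 weeks, 200-240 g) made febrile by s.c. 15% brewer's yeast 18 h before dosing; only animals at ≥38.5° C used. Compound given orally versus solvent control, with rectal temperature taken by thermistor hourly for 5 h post-dose.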

ICAM-1 = assay: Adhesion protein expression inhibitory activity, ICAM-1; format: cell-based; conditions: human umbilical vascular endothelial cells, TNF-α, 360 min
Procedure, shortened: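 HUVECs pre-incubated with test compounds 15 minutes at 37° C., then stimulated with TNF-α at 1 ng/ml final for 3 hours (ELAM-1) or 6 hours (ICAM-1). Surface expression measured on glutaraldehyde-fixed cells by cell-ELISA using anti-ELAM-1 BBA-2 or anti-ICAM-1 BBA4 and HRP-labelled anti-mouse IgG.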

[4] = test system: ART (antigen-responding T-cell); assay: In vitro ART (antigen-responding T-cell) proliferation test; format: cell-based, Lewis rat; conditions: Rattus norvegicus, T-cell, read-out: % Inhibition of ART growth
[5] = test system: PAF induced respiratory tract constriction; assay: PAF induced respiratory tract constriction inhibitory activity; format: in vivo, guinea pig (Hartley); conditions: 3 mg/kg, intravenously
Text: PAF Induced Respiratory Tract Constriction Inhibitory Activity Male and female Hartley guinea pigs, weighing about 100 g, were used. The guinea pigs were fixed at a dorsal position under urethane anethesia (1.5 g/kg, i.p.). One leg of a cannula (having four legs) was inserted in the trachea and two of the other three legs were bound to the respirator (Harvard apparatus rodent respirator). The remaining one leg (side branch) was bound to the bronchospasm transducer 7.020 (Ugobasile). Under the conditions of 5 to 7 ml of air supply/time, 70 times/min. of supply time and 10 cm H2 O of pulmonary pressure load, the amount of over flow air was recorded on a Rectigraph (Rectigraph-8S, Saneissoki) via the transducer. After Gallamine […] treatment (1 mg/kg, i.v.), PAF was administered intravenously (1.0 μg/kg) and the maximum respiratory tract constriction response was observed after 30 seconds. Under these conditions, the inhibitory activity of the test compounds were examined.

ELAM-1 = assay: Adhesion protein expression inhibitory activity, ELAM-1; format: cell-based; conditions: 13 μM, human umbilical vascular endothelial cells, TNF-α; 180 min
Method: Adhesion Protein Expression Inhibitory Activity The various concentrations of test compounds were added to the human umbilical cord-derived vascular endothelial cells [sold by Klabo] which were seeded in the gelatin coat plate and the mixture was incubated at 37° C. for 15 minutes. Then, the human tumor necrosis factor-α[TNF-α; sold by Genzyme] was added therein to the final concentration of 1 ng/ml and incubation was carried out at 37° C. for 3 hours for expression of ELAM-1 and for 6 hours for that of ICAM-I. After the reaction, the cells were fixed using glutaraldhyde and the expression amount of ELAM-1 and ICAM-1 was measured by the cell-ELISA method. That is, the expression was determined by […] the adhesion proteins on the cells in the system using anti-ELAM-1 antibody BBA-2 and anti-ICAM-1 antibody BBA4 as the first antibody as well as horseradish peroxidase-labeled rabbit anti-mouse IgG antibody as the second antibody.

[6] = test system: Mouse acetic acid writhing; assay: Mouse acetic acid writhing inhibitory activity; format: in vivo, mouse (Slc: ICR); conditions: Mus musculus, po, 20 min, orally, read-out: Inhibitory percentage (acetic acid writhing)
Method: Mouse Acetic Acid Writhing Inhibitory Activity
Ten male Slc: ICR mice, 4 weeks old, per 1 group were used. A test compound was administered orally, and after 30 minutes, 0.1 ml/10 g body weight of physiological saline containing 0.6% acetic acid was injected intraperitoneally. For 20 minutes, writhing (in agony condition) response by administration of acetic acid was counted regarding individual animals. The inhibitory percentage relative to the mean response counts of a control group was calculated regarding respective animals in a test compound administration group. The test compound was suspended in 5% gum arabic solution, and the administration volume was 0.2 ml/10 g.

5-Lipoxygenase = target: T2, 5-Lipoxygenase (Rattus norvegicus, UniProt P12527); assay: 5-Lipoxygenase inhibitory activity in rat basophilic leukemia cells; format: cell-based
T2 construct: rat basophilic leukemia cell suspension; endogenous in cells
T2 sequence (P12527 1-673): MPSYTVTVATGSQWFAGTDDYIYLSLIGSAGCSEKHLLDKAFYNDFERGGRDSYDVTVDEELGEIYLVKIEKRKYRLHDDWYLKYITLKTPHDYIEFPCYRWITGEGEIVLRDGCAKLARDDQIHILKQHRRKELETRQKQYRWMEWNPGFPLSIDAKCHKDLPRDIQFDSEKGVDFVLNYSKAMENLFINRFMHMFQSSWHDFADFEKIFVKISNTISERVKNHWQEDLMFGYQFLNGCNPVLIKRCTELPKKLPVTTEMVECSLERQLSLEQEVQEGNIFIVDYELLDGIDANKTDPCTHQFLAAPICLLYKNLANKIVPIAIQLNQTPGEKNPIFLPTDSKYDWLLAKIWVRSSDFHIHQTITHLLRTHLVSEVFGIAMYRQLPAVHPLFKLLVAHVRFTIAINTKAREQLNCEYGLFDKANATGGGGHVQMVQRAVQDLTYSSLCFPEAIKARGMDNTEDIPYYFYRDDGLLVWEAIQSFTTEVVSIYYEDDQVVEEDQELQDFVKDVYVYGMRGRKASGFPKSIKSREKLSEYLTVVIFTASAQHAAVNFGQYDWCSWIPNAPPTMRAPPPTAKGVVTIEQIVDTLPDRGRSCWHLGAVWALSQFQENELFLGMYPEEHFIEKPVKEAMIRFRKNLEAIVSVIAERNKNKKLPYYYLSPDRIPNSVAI
Method: 5-Lipoxygenase Inhibitory Activity […] Then, 0.1 ml of mast cell medium containing 50 μg of arachidonic acid and 1 μg of calcium ionophore (A-23187) were added and the mixture was allowed to stand at 37° C. for 15 minutes. Ethanol (1 ml) was added thereto and the mixture was shaken well, and filtered (Membrane filter, 0.45 μm). […] As a control, the measurement was carried out according to the same manner except that 0.01 ml of the solvent used for dissolving the test compound was used in place of the test compound. The inhibitory percentage (%) was calculated from the following equation to obtain IC50.

IC50 (cyclooxygenase) [nM] | IC50 (5-Lipoxygenase; 5-HETE, read-out: 5-Lipoxygenase inhibitory activity, 5-HETE IC50) [nM] | IC50 (5-Lipoxygenase; LTB4, read-out: 5-Lipoxygenase inhibitory activity, LTB4 IC50) [nM] | Compound | Blood urea nitrogen [1] [mg/dL] | inhibition in vivo at 50 mg/kg [2] [%] | Swelling inhibitory percentage (Rat adjuvant arthritis) [%] | Antipyretic activity, peak time [3] [h] | Antipyretic activity, .increment. °C. ([3]; at peak time) [°C] | Expression Inhibitory Potency, ICAM-1 (ICAM-1; 30 μM) [%] | inhibition at 1 µM [4] [%] | inhibition at 10 µM [4] [%] | Inhibitory activity (PAF induced respiratory tract constriction) [5] [%] | Expression Inhibitory Potency, ELAM-1 (ELAM-1) [%] | Expression Inhibitory Potency, ICAM-1 (ICAM-1; 13 μM) [%] | inhibition in vivo at 50 mg/kg [6] [%]
2800 |  |  | Cl.O=C(N(CCCSc1ccncc1)Cc1ccccc1)C(F)(F)F [Example 73, 4-[3-(N-benzyl-N-trifluoroacetylamino)propylthio]pyridine hydrochloride] | 68 ± 3 | 75 | 52 | 2 | -0.65 | 42 | 23 | 82 |  |  |  | 
1800 |  |  | O=c1c2ccccc2n(CCCCSc2ccncc2)c(=O)n1CCCCSc1ccncc1 [Example 147, 1,3-bis[4-(4-pyridylthio)butyl]quinazolin-2,4(1H,3H)-dione] |  |  |  |  |  |  | 9 | 72 | 50.7 | 96 | 83 | 46
 | 2600 | 2500 | O=C1SC(=Cc2ccccc2)C(=O)N1CCCCSc1ccncc1 [Example 150, 4-[4-(5-benzylidene-2,4-thiazolidinedione)butylthio]pyridine] | 76.8 ± 16.9 |  |  |  |  | 94 | -31 | 75 |  |  |  | 54
 |  |  | O=C1SC(=Cc2cccs2)C(=O)N1CCCCSc1ccncc1 [Example 157, 4-[4-[5-(2-thienylmethylene)-2,4-thiazolidinedione]butylthio]pyridine] | 62.4 ± 7.0 |  |  |  |  | 78 | -50 | 62 |  |  |  | 
 |  |  | CCCC=C1SC(=O)N(CCCCSc2ccncc2)C1=O [Example 171, 4-[4-(5-propylmethylene-2,4-thiazolidinedione)butylthio]pyridine] | 64 ± 11 |  |  |  |  |  | 96 | 41 |  | 94 | 75 | 
